# The supplement of paper PMC10307832
# What was measured:
# Experiment in all cases: relative viability (nuclei count vs DMSO), 5 days (fraction); higher = more cells survive
# BAY61-3606 + Tozasertib = compound: COC1=C(C=C(C=C1)C2=CC3=NC=CN3C(=N2)NC4=C(C=CC=N4)C(=O)N)OC [BAY61-3606] + Cc1cc(Nc2cc(N3CCN(C)CC3)nc(Sc3ccc(NC(=O)C4CC4)cc3)n2)n[nH]1 [Tozasertib] (partner 0.1 µM)
# In short: (§1)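 One day after seeding in 1536-well plates, lung cancer cell lines were dosed by pin tool. Dosing was either single-drug or a fixed anchor-drug dose plus five library-drug doses (not always all listed) in √10 steps. After 5 days, nuclei were stained in one fix-and-stain step and counted on 4× images, and relative viability is the nuclei count of treated wells over that of vehicle wells, given as the median of duplicate plates.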
# BAY61-3606 + Lapatinib = compound: COC1=C(C=C(C=C1)C2=CC3=NC=CN3C(=N2)NC4=C(C=CC=N4)C(=O)N)OC [BAY61-3606] + CS(=O)(=O)CCNCc1ccc(-c2ccc3ncnc(Nc4ccc(OCc5cccc(F)c5)c(Cl)c4)c3c2)o1 [Lapatinib] (partner 2 µM)
# In short: as §1
# BAY61-3606 + Olaparib = compound: COC1=C(C=C(C=C1)C2=CC3=NC=CN3C(=N2)NC4=C(C=CC=N4)C(=O)N)OC [BAY61-3606] + O=C(c1cc(Cc2n[nH]c(=O)c3ccccc23)ccc1F)N1CCN(C(=O)C2CC2)CC1 [Olaparib] (partner 8 µM)
# In short: as §1
# BAY61-3606 + Bortezomib = compound: COC1=C(C=C(C=C1)C2=CC3=NC=CN3C(=N2)NC4=C(C=CC=N4)C(=O)N)OC [BAY61-3606] + CC(C)C[C@H](NC(=O)[C@H](Cc1ccccc1)NC(=O)c1cnccn1)B(O)O [Bortezomib] (partner 0.002 µM)
# In short: as §1
Cell Line,relative viability (BAY61-3606 + Tozasertib; first compound 0.02 µM),relative viability (BAY61-3606 + Tozasertib; first compound 0.06325 µM),relative viability (BAY61-3606 + Tozasertib; first compound 0.2 µM),relative viability (BAY61-3606 + Tozasertib; first compound 0.6325 µM),relative viability (BAY61-3606 + Tozasertib; first compound 2 µM),relative viability (BAY61-3606 + Lapatinib; first compound 0.02 µM),relative viability (BAY61-3606 + Lapatinib; first compound 0.06325 µM),relative viability (BAY61-3606 + Lapatinib; first compound 0.2 µM),relative viability (BAY61-3606 + Lapatinib; first compound 0.6325 µM),relative viability (BAY61-3606 + Lapatinib; first compound 2 µM),relative viability (BAY61-3606 + Olaparib; first compound 0.02 µM),relative viability (BAY61-3606 + Olaparib; first compound 0.06325 µM),relative viability (BAY61-3606 + Olaparib; first compound 0.2 µM),relative viability (BAY61-3606 + Olaparib; first compound 0.6325 µM),relative viability (BAY61-3606 + Olaparib; first compound 2 µM),relative viability (BAY61-3606 + Bortezomib; first compound 0.02 µM),relative viability (BAY61-3606 + Bortezomib; first compound 0.06325 µM),relative viability (BAY61-3606 + Bortezomib; first compound 0.2 µM),relative viability (BAY61-3606 + Bortezomib; first compound 0.6325 µM),relative viability (BAY61-3606 + Bortezomib; first compound 2 µM)
LK-2,0.19,0.163,0.193,0.158,0.21,0.922,0.777,1.01,1.03,0.935,0.694,0.598,0.731,0.846,0.736,–,–,–,–,–
NCI-H2170,0.714,0.475,0.751,0.607,0.213,0.236,0.272,0.257,0.262,0.279,0.59,0.62,0.571,0.626,0.435,–,–,–,–,–
NCI-H1944,0.256,0.224,0.239,0.249,0.215,0.851,0.88,0.796,0.776,0.587,0.439,0.38,0.397,0.434,0.258,–,–,–,–,–
A549,–,–,–,–,–,1.09,1.15,1.05,0.953,0.902,0.332,0.377,0.217,0.312,0.336,–,–,–,–,–
SK-MES-1,0.889,0.819,0.623,0.61,0.135,0.594,0.483,0.469,0.424,0.42,0.679,0.786,0.606,0.688,0.31,–,–,–,–,–
NCI-H1395,0.722,0.679,0.682,0.781,0.411,1.13,1.08,1.34,0.98,0.973,0.485,0.426,0.467,0.492,0.438,–,–,–,–,–
NCI-H1299,–,–,–,–,–,0.945,0.98,0.97,0.963,0.953,1,0.987,0.983,0.967,0.936,1.08,1.03,1.02,1.04,0.991
NCI-H522,0.562,0.517,0.527,0.574,0.5,–,–,–,–,–,0.768,0.618,0.644,0.654,0.53,–,–,–,–,–
NCI-H1792,–,–,–,–,–,0.904,0.951,0.949,0.902,0.95,0.66,0.463,0.294,0.286,0.282,0.967,0.987,0.879,0.943,0.976
NCI-H441,0.636,0.558,0.363,0.314,0.274,–,–,–,–,–,0.561,0.629,0.511,0.473,0.32,0.729,0.51,0.479,0.607,0.434
IA-LM,–,–,–,–,–,0.92,0.841,–,0.981,0.58,1.02,0.864,0.816,0.85,0.68,0.912,–,0.917,0.797,0.68
SW 900,0.576,0.582,0.372,0.294,0.237,–,–,–,–,–,0.881,–,–,0.856,0.573,–,–,–,–,–
